Species on record: Mus musculus
Experiment: Induction of glucose-triggered insulin secretion in BALB/c mouse islets of langerhans measured per islets incubated for 60 mins by ELISA analysis (reference value: 11.8 +/- 0.8 ng/hr)
Assay type: functional
Settings: 1 h

Structure (SMILES)	Activity
CC(=O)O[C@@H]1[C@H]2[C@H](c3ccoc3)OC(=O)[C@H](C)[C@@]2(O)[C@@]23CCC[C@@](C)(C(=O)OC2)[C@@]13O	8 ng/h
C[C@@H]1C(=O)O[C@@]23COC(=O)[C@]2(C)CCC(=O)[C@@]3(C)[C@@H]1CC(=O)c1ccoc1	16.3 ng/h
COC(=O)[C@]1(C)CCC[C@]2(C)[C@H]1[C@H](OC(C)=O)[C@H]1[C@H](c3ccoc3)OC(=O)[C@H](C)[C@]12O	7.5 ng/h
C[C@@H]1C(=O)O[C@@]23CC[C@@]4(C)C(=O)OC[C@]45O[C@@](c4ccoc4)(C[C@H]1[C@]25C)O3	25.5 ng/h
COC(=O)[C@]1(C)CCC[C@@]2(C)[C@@]3(O)[C@@H]([C@@H](O)[C@@]21O)[C@H](c1ccoc1)OC(=O)[C@@H]3C	8.2 ng/h
C[C@@H]1C(=O)O[C@@]23CC[C@@]4(C)C(=O)OC[C@]45O[C@@](C4=C[C@@H](O)OC4=O)(C[C@H]1[C@]25C)O3	18.3 ng/h
CC(=O)O[C@H]1[C@@H]2[C@@H]([C@@H](C)C(=O)O[C@H]2c2ccoc2)[C@@]23CCC[C@@](C)(C(=O)OC2O)[C@@]13O (stereo not given in full)	16.6 ng/h
C[C@H]1C(=O)O[C@@]23COC(=O)[C@]2(C)CCC(=O)[C@@]3(C)[C@@H]1CC(=O)c1ccoc1	18.4 ng/h
C[C@H]1C(=O)O[C@@H](c2ccoc2)C[C@H]1[C@@]1(C)CCC[C@@]2(C)C(=O)OC[C@H]12	10.6 ng/h
COC(=O)[C@]1(C)CCC[C@@]2(C)C3=C(C)C(=O)O[C@@H](c4ccoc4)[C@@H]3[C@@H](OC(C)=O)[C@]12O	9.3 ng/h
COC(=O)[C@]1(C)CCC[C@@]2(C)C3=C(C)C(=O)O[C@@H](C4=CC(=O)OC4O)[C@@H]3[C@@H](OC(C)=O)[C@]12O (stereo not given in full)	16.4 ng/h
CCCCNC(=O)NS(=O)(=O)c1ccc(C)cc1 [TOLBUTAMIDE]	19.9 ng/h
COC(=O)[C@]1(C)CCCC2=C1[C@@H](OC(C)=O)[C@H]1[C@H](c3ccoc3)OC(=O)[C@@H](C)[C@@]21O	12.5 ng/h
CC(=O)O[C@@H]1[C@@H]2C(=C(C)C(=O)O[C@H]2c2ccoc2)[C@]2(C)[C@@H]3CC[C@@](C)(C(=O)O3)[C@@H]12	8 ng/h
COC(=O)[C@]1(C)CC[C@@H](O)[C@@H]2C3=C(C)C(=O)O[C@@H](c4ccoc4)[C@@H]3[C@@H](OC(C)=O)[C@H]21	14.6 ng/h
C[C@H]1C(=O)O[C@@]23COC(=O)[C@]2(C)CC[C@@]2(O)O[C@H](c4ccoc4)C[C@H]1[C@@]32C	30.7 ng/h
C[C@@H]1C(=O)O[C@@H](c2ccoc2)C[C@H]1[C@@]1(C)CCC[C@@]2(C)COC(=O)[C@@H]21	16.9 ng/h
COC(=O)[C@]1(C)CCC[C@@]2(C)[C@@]3(O)[C@@H]([C@@H](OC(C)=O)[C@@]21O)[C@H](c1ccoc1)OC(=O)[C@@H]3C	24.7 ng/h
C[C@@H]1C(=O)O[C@@]23CC[C@@]4(C)C(=O)OC[C@]45O[C@@](C4=CC(=O)OC4O)(C[C@H]1[C@]25C)O3 (stereo not given in full)	20.8 ng/h
C[C@@H]1C(=O)O[C@@]23CC[C@@]4(C)C(=O)OC[C@]45O[C@@](C4=C[C@H](O)OC4=O)(C[C@H]1[C@]25C)O3	25.5 ng/h

— ChEMBL document CHEMBL5316363, “Compounds Related to Saudin and Three New Series of Diterpenoids from Clutia lanceolata” (2023)
